From ChEMBL document CHEMBL3832761, “MMV Pathogen Box Bioactivity Data” (2017)
≈ marks a conversion by molar mass, not a printed value.

Assays:
Format in all cases: functional
[1] = test system: Mycobacterium tuberculosis; test: AntiMycobacterium tuberculosis activity 1-week GAST/Fe MIC (uM); settings: 168 h
[2] = test system: Mycobacterium tuberculosis; test: AntiMycobacterium tuberculosis activity 1-week 7H9/DPPC/cholesterol/BSA/Tx MIC (uM); settings: 168 h
[3] = test system: Mycobacterium tuberculosis; test: AntiMycobacterium tuberculosis activity day 21 MIC99 in 7H9/2.5mM butyrate/pH6/0.1mM nitrite MIC99 (uM); settings: 504 h
[4] = test system: Mycobacterium tuberculosis; test: AntiMycobacterium tuberculosis activity 1-week 7H9/glucose/BSA/Tx MIC (uM); settings: 168 h
[5] = test system: Mycobacterium tuberculosis; test: AntiMycobacterium tuberculosis activity 1-week 7H9/ADC/Tw MIC (uM); settings: 168 h
[6] = test system: Mycobacterium tuberculosis; test: AntiMycobacterium tuberculosis activity 2-week 7H9/DPPC/cholesterol/BSA/Tx MIC (uM); settings: 336 h
HepG2 [7] = test: HepG2 glucose CC50 (uM) Cytotoxicity
[8] = test system: Mycobacterium tuberculosis; test: AntiMycobacterium tuberculosis activity day 21 in 7H9/2.5mM butyrate/pH6/0.1mM nitrite MIC90 (uM); settings: 504 h
[9] = test system: Mycobacterium tuberculosis; test: AntiMycobacterium tuberculosis activity 2-week 7H9/ADC/Tw MIC (uM); settings: 336 h
[10] = test system: Mycobacterium tuberculosis; test: (§1) AntiMycobacterium tuberculosis activity day 10 in 7H9/2.5mM butyrate/pH6/0.1mM nitrite MIC90 (uM); settings: 240 h
[11] = test system: Mycobacterium tuberculosis; test: AntiMycobacterium tuberculosis activity 2-week Alamar Blue 7H9/ADC/Tw MIC (uM); settings: 336 h
HepG2 [12] = test: HepG2 galactose CC50 (uM) Cytotoxicity
[13] = test system: Mycobacterium tuberculosis; test: AntiMycobacterium tuberculosis activity 1-week 7H9/cholesterol/BSA/Tx MIC (uM); settings: 168 h
[14] = test system: Mycobacterium tuberculosis; test: AntiMycobacterium tuberculosis activity 2-week GAST/Fe MIC (uM); settings: 336 h
[15] = test system: Mycobacterium tuberculosis; test: AntiMycobacterium tuberculosis activity 2-week Alamar Blue 7H9/cholesterol/BSA/Tx MIC (uM); settings: 336 h
[16] = test system: Mycobacterium tuberculosis; test: as §1; settings: 240 h; remark: listed apart in the source
[17] = test system: Mycobacterium tuberculosis; test: AntiMycobacterium tuberculosis activity 2-week 7H9/glucose/BSA/Tx MIC (uM); settings: 336 h

SMILES | MIC [1] [µM] | MIC [2] [µM] | MIC [3] [µM] | MIC [4] [µM] | MIC [5] [µM] | MIC [6] [µM] | CC50 (HepG2 [7]; Homo sapiens, HepG2) [µM] | MIC90 [8] [µM] | MIC [9] [µM] | MIC90 [10] [µM] | MIC [11] [µM] | CC50 (HepG2 [12]; Homo sapiens, HepG2) [µM] | MIC [13] [µM] | MIC [14] [µM] | MIC [15] [µM] | MIC90 [16] [µM] | MIC [17] [µM] | CC50 (HepG2 [7]) [µM] | CC50 (HepG2 [12]) [µM]
COc1ccc2nccc(NC(=O)C3CCN(CCc4ccc(Cl)cc4)CC3)c2n1 | 0.3 (≈ 0.127 µg/mL) | 0.39 (≈ 0.166 µg/mL) | > 50 | 0.39 (≈ 0.166 µg/mL) | 0.39 (≈ 0.166 µg/mL) | 0.78 (≈ 0.331 µg/mL) | > 50 | 0.78 (≈ 0.331 µg/mL) | 0.39 (≈ 0.166 µg/mL) | 0.39 (≈ 0.166 µg/mL) | 0.39 (≈ 0.166 µg/mL) | > 50 | 0.39 (≈ 0.166 µg/mL) | 0.39 (≈ 0.166 µg/mL) | 0.6 (≈ 0.255 µg/mL) | > 50 | 0.78 (≈ 0.331 µg/mL) | – | –
Clc1ccc(CCNc2cc(-c3ccccc3)nc3ncnn23)cc1 | 0.3 (≈ 0.105 µg/mL) | 4.7 (≈ 1.64 µg/mL) | > 50 | 50 (≈ 17.5 µg/mL) | 50 (≈ 17.5 µg/mL) | > 50 | > 50 | 25 (≈ 8.75 µg/mL) | > 50 | 6.25 (≈ 2.19 µg/mL) | 6.25 (≈ 2.19 µg/mL) | > 50 | 3.13 (≈ 1.09 µg/mL) | 1.2 (≈ 0.42 µg/mL) | 3.13 (≈ 1.09 µg/mL) | > 50 | > 50 | – | –
COc1cccc(-n2nnnc2S(=O)(=O)Cc2ccccc2)c1 | 1.2 (≈ 0.396 µg/mL) | 25 (≈ 8.26 µg/mL) | 6.25 (≈ 2.06 µg/mL) | 12.5 (≈ 4.13 µg/mL) | 25 (≈ 8.26 µg/mL) | 50 (≈ 16.5 µg/mL) | 19.1 | 6.25 (≈ 2.06 µg/mL) | 37 (≈ 12.2 µg/mL) | 3.12 (≈ 1.03 µg/mL) | 25 (≈ 8.26 µg/mL) | 28.5 | 25 (≈ 8.26 µg/mL) | 1.56 (≈ 0.515 µg/mL) | 50 (≈ 16.5 µg/mL) | 6.25 (≈ 2.06 µg/mL) | 37 (≈ 12.2 µg/mL) | 17.9 | 30.6
CS(=O)(=O)Cc1nc2ccccc2oc1=O | 0.78 (≈ 0.187 µg/mL) | 6.25 (≈ 1.5 µg/mL) | 12.5 (≈ 2.99 µg/mL) | 9.4 (≈ 2.25 µg/mL) | 19 (≈ 4.55 µg/mL) | 6.25 (≈ 1.5 µg/mL) | > 50 | 3.12 (≈ 0.746 µg/mL) | 9.4 (≈ 2.25 µg/mL) | 3.12 (≈ 0.746 µg/mL) | 6.25 (≈ 1.5 µg/mL) | > 50 | 6.25 (≈ 1.5 µg/mL) | 1.56 (≈ 0.373 µg/mL) | 6.25 (≈ 1.5 µg/mL) | 12.5 (≈ 2.99 µg/mL) | 9.4 (≈ 2.25 µg/mL) | – | –
c1ccc(-c2nc(NC3CCCCC3)cc(C3CC3)n2)nc1 | 25 (≈ 7.36 µg/mL) | 25 (≈ 7.36 µg/mL) | > 50 | 37 (≈ 10.9 µg/mL) | 37 (≈ 10.9 µg/mL) | 50 (≈ 14.7 µg/mL) | > 50 | 50 (≈ 14.7 µg/mL) | 50 (≈ 14.7 µg/mL) | 25 (≈ 7.36 µg/mL) | 37 (≈ 10.9 µg/mL) | > 50 | 19 (≈ 5.59 µg/mL) | 25 (≈ 7.36 µg/mL) | 9.4 (≈ 2.77 µg/mL) | 50 (≈ 14.7 µg/mL) | 50 (≈ 14.7 µg/mL) | – | –
COc1cc(Br)cc2cc(C(=O)Nc3cccc(C(F)(F)F)c3)c(=O)oc12 | 1.2 (≈ 0.531 µg/mL) | 2.3 (≈ 1.02 µg/mL) | 12.5 (≈ 5.53 µg/mL) | 1.56 (≈ 0.69 µg/mL) | 50 (≈ 22.1 µg/mL) | 9.4 (≈ 4.16 µg/mL) | > 50 | 12.5 (≈ 5.53 µg/mL) | > 50 | 1.5 (≈ 0.663 µg/mL) | > 50 | > 50 | 6.25 (≈ 2.76 µg/mL) | 4.7 (≈ 2.08 µg/mL) | 12.5 (≈ 5.53 µg/mL) | 12.5 (≈ 5.53 µg/mL) | 9.4 (≈ 4.16 µg/mL) | – | –
O=C(c1ccco1)N(CCCn1ccnc1)c1nc2c(Cl)cccc2s1 | 25 (≈ 9.67 µg/mL) | 37 (≈ 14.3 µg/mL) | > 50 | 50 (≈ 19.3 µg/mL) | ≥ 50 | 37 (≈ 14.3 µg/mL) | > 50 | 25 (≈ 9.67 µg/mL) | 50 (≈ 19.3 µg/mL) | 25 (≈ 9.67 µg/mL) | 25 (≈ 9.67 µg/mL) | > 50 | 12.5 (≈ 4.84 µg/mL) | 37 (≈ 14.3 µg/mL) | 12.5 (≈ 4.84 µg/mL) | > 50 | 37 (≈ 14.3 µg/mL) | – | –
COc1cc(CN2CCC3(C=Cc4ccccc43)CC2)cc2c1OCO2 | 0.6 (≈ 0.21 µg/mL) | 1.56 (≈ 0.545 µg/mL) | 12.5 (≈ 4.37 µg/mL) | 2.3 (≈ 0.804 µg/mL) | 1.2 (≈ 0.419 µg/mL) | 2.3 (≈ 0.804 µg/mL) | > 50 | 6.25 (≈ 2.18 µg/mL) | 0.78 (≈ 0.273 µg/mL) | 6.25 (≈ 2.18 µg/mL) | 0.78 (≈ 0.273 µg/mL) | > 50 | 1.56 (≈ 0.545 µg/mL) | 0.78 (≈ 0.273 µg/mL) | 2.3 (≈ 0.804 µg/mL) | 12.5 (≈ 4.37 µg/mL) | 2.3 (≈ 0.804 µg/mL) | – | –
